Measurements taken from ChEMBL document CHEMBL1129318, “Structure-activity relationships of boronic acid inhibitors of dipeptidyl peptidase IV. 1. Variation of the P2 position of Xaa-boroPro dipeptides” (J Med Chem, 1996).

Key:
[1] = target: Dipeptidyl peptidase 4 (Homo sapiens, UniProt P27487); assay: In vitro for inhibition of Dipeptidylpeptidase IV.
[2] = target: Dipeptidyl peptidase 2 (Homo sapiens, UniProt Q9UHL4); assay: Compound was tested in vitro for inhibition of Dipeptidylpeptidase II
[3] = target: T1, Prolyl endopeptidase (Homo sapiens, UniProt P48147); assay: (§1) Compound was tested in vitro for inhibition of Prolyl endopeptidase
T1 sequence (P48147 whole entry): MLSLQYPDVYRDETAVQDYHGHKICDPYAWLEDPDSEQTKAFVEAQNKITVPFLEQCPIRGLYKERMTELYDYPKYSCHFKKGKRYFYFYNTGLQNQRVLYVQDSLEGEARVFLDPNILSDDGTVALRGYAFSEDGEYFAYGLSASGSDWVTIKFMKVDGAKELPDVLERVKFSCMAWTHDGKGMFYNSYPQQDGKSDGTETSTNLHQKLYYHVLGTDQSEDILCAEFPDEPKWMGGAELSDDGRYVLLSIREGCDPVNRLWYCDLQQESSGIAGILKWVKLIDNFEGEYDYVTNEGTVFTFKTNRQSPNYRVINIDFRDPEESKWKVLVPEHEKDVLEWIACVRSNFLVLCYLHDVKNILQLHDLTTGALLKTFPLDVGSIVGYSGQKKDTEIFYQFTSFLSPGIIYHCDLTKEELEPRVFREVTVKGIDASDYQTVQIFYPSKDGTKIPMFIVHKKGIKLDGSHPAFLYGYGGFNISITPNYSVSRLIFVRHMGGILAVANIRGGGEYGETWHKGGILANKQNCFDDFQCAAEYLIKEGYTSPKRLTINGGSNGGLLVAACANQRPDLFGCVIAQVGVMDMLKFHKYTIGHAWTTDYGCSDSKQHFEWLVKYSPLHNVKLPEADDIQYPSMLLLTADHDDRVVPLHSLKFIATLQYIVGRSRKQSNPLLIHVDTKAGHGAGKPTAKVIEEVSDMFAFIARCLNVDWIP

[4] = target: T2, Prolyl endopeptidase (Homo sapiens) (UniProt P48147); assay: as §1; conditions: concentration not given here
T2 sequence (whole entry): T1 sequence (P48147 whole entry)

Dipeptidyl peptidase 4, sequence (P27487 whole entry): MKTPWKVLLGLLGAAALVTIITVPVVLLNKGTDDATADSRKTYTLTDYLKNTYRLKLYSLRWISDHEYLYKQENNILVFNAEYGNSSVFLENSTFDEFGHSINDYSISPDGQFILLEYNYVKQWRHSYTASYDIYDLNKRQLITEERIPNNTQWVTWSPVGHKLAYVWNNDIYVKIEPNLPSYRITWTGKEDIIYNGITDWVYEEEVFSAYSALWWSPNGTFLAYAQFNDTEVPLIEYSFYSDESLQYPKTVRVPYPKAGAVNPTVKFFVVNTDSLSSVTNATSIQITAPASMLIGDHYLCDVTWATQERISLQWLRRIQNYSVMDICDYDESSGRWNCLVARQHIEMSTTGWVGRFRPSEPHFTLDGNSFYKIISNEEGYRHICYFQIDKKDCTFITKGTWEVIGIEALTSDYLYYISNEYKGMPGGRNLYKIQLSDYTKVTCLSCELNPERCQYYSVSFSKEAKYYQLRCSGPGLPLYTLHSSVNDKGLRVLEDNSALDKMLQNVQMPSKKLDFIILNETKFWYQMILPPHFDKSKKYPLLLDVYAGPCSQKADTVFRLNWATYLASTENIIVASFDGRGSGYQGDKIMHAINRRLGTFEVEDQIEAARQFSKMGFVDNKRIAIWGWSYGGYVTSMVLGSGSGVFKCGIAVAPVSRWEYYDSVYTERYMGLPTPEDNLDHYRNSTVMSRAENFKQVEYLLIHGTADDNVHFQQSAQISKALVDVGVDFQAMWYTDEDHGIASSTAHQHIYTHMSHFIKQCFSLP

SMILES	IC50 [1] [nM]	other results
CC[C@H](C)[C@H](N)C(=O)N1CCC[C@H]1B(O)O	25	
C[C@@H](O)[C@H](N)C(=O)N1CCC[C@H]1B(O)O	190	IC50 [2]: 730 nM; IC50 [3]: 6000 nM
N[C@@H](Cc1c[nH]cn1)C(=O)N1CCC[C@H]1B(O)O	17000	
NCCCC[C@H](N)C(=O)N1CCC[C@H]1B(O)O	95	
CC(C)C[C@H](N)C(=O)N1CCC[C@H]1B(O)O	44	
C[C@H](N)C(=O)N1CCC[C@H]1B(O)O		IC50 [2]: 60 nM
O=C([C@@H]1CCCN1)N1CCC[C@H]1B(O)O	20	IC50 [2]: 770 nM; inhibition [4]: 63%

More lines, in order of falling IC50 [1], values ahead:

IC50 [1] [nM]	SMILES	other results
30000	CC(C)(N)C(=O)N1CCC[C@H]1B(O)O	
16000	NCC(=O)N1CCC[C@H]1B(O)O	
250	O=C([C@@H]1CCN1)N1CCC[C@H]1B(O)O	
70	N[C@@H](Cc1ccccc1)C(=O)N1CCC[C@H]1B(O)O	
63	N[C@H](C(=O)N1CCC[C@H]1B(O)O)c1ccccc1	
32	N[C@@H](Cc1ccc(O)cc1)C(=O)N1CCC[C@H]1B(O)O	
